Experimental data reported in patent publication US8765730B2 (Hoffmann-La Roche Inc, priority 2010, dated 2014).

target: T1, human GPBAR1 receptor (Homo sapiens, UniProt Q8TDU6); assay: functional cAMP assay in CHO-dhfr(minus) cells expressing human GPBAR1 receptors; format: cell-based; conditions: functional cAMP assay, 30 min at 30° C., read-out: human EC50
T1 construct: expressed in transfected cells
T1 sequence (Q8TDU6 1-330): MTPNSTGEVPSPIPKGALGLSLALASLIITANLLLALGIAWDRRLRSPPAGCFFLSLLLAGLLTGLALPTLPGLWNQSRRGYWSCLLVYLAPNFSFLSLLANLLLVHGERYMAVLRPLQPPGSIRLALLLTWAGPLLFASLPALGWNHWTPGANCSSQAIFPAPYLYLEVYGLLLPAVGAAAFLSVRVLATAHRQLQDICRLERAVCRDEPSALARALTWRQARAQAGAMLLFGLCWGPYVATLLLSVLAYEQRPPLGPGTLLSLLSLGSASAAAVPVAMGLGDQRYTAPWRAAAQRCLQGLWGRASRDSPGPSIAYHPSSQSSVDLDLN
Method: The final clone was verified by DNA sequence analysis. The plasmid was transfected into CHO cells deficient in dihydrofolate reductase activity (CHO-dhfr−) using Lipofectamine plus (Invitrogen). Clones were isolated in limited dilution conditions and identified by activities in the cAMP assay using lithocholic acid as agonist.
The growth medium was exchanged with Krebs Ringer Bicarbonate buffer with 1 mM IBMX and incubated at 30° C. for 30 min. Compounds were added to a final assay volume of 100 μl and incubated for 30 min at 30° C. […] The time-resolved energy transfer is measured by a TRF reader (Evotec Technologies GmbH, Hamburg Germany), equipped with a ND:YAG laser as excitation source.
EC50 values were determined using Activity Base analysis (ID Business Solution, Limited). […] Specificity for GPBAR1 was tested in non-transfected CHO cells in the same assay as above.

| EC50 | Compound |
| --- | --- |
| 355 nM | CS(=O)(=O)c1cccc(-c2ccc(C(C/C(=N\O)c3ccncc3)c3ccccc3)cc2)c1 (stereo not drawn) [Example 19, (E)-3-(3′-Methanesulfonyl-biphenyl-4-yl)-3-phenyl-1-pyridin-4-yl-propan-1-one oxime] |

same assay, conditions: human EC50, functional cAMP assay, 30 min at 30° C.

| Compound | EC50 |
| --- | --- |
| Cc1ccccc1C(C/C(=N\O)c1cc(Cl)nc(Cl)c1)c1ccc(Br)cc1 (stereo not drawn) [Example 120, (E)-3-(4-Bromo-phenyl)-1-(2,6-dichloro-pyridin-4-yl)-3-o-tolyl-propan-1-one oxime] | 184 nM |
| Cc1cc(C(CC(c2ccc(Br)cc2)C(C)(C)C)=NO)ccn1 (racemic) [Example 129, 3-(4-Bromo-phenyl)-4,4-dimethyl-1-(2-methyl-pyridin-4-yl)-pentan-1-one oxime] | 591 nM |
| Cn1cc(/C(CC(c2ccc(-c3ccc(C(=O)O)c(F)c3)cc2)c2ccc(Cl)cc2Cl)=N/O)ccc1=O (stereo not drawn) [Example 473, 4′-[1-(2,4-Dichloro-phenyl)-3-[(E)-hydroxyimino]-3-(1-methyl-6-oxo-1,6-dihydro-pyridin-3-yl)-propyl]-3-fluoro-biphenyl-4-carboxylic acid] | 29 nM |
| Cc1cc(/C(C[C@H](c2ccc(N3CCC(C(=O)O)CC3)cc2)c2ccc(F)cc2F)=N/O)ccn1 (single isomer, unassigned) [Example 427, 1-{4-[(−)-1-(2,4-Difluoro-phenyl)-3-[(E)-hydroxyimino]-3-(2-methyl-pyridin-4-yl)-propyl]-phenyl}-piperidine-4-carboxylic acid] | 4 nM |
| Cc1cc(C(C[C@@H](c2ccc(-c3ccc(C(=O)N[C@H](C)c4ccccc4)cc3)cc2)c2ccccc2C)=NO)ccn1 (racemic) [Example 97, 4′-[(S)-3-[Hydroxyimino]-3-(2-methyl-pyridin-4-yl)-1-o-tolyl-propyl]-biphenyl-4-carboxylic acid ((R)-1-phenyl-ethyl)-amide] | 177 nM |
| Cc1ccccc1C(C/C(=N\O)c1ccncc1)c1ccc(N2CCN(S(C)(=O)=O)CC2)cc1 (stereo not drawn) [Example 136, (E)-3-[4-(4-Methanesulfonyl-piperazin-1-yl)-phenyl]-1-pyridin-4-yl-3-o-tolyl-propan-1-one oxime] | 24 nM |
| Cc1ccccc1C(CC(=NO)c1ccnc(Cl)c1)c1ccc(Br)cc1 (racemic) [Example 119, 3-(4-Bromo-phenyl)-1-(2-chloro-pyridin-4-yl)-3-o-tolyl-propan-1-one oxime] | 227 nM |
| Cn1cc(/C(CC(c2ccc(-c3ccc(C(=O)O)c(F)c3)cc2)c2ccc(Cl)cc2Cl)=N/O)ccc1=O (single isomer, unassigned) [Example 475, 4′-[(+)-1-(2,4-dichloro-phenyl)-3-[(E)-hydroxyimino]-3-(1-methyl-6-oxo-1,6-dihydro-pyridin-3-yl)-propyl]-3-fluoro-biphenyl-4-carboxylic acid] | 166 nM |
| Cc1cc(/C(CC(c2cccc(CC(=O)O)c2)c2ccccc2C)=N/O)ccn1 (stereo not drawn) [Example 105, {3-[3-[(E)-Hydroxyimino]-3-(2-methyl-pyridin-4-yl)-1-o-tolyl-propyl]-phenyl}-acetic acid] | 1020 nM |
| Cn1cc(/C(CC(c2ccc(C(=O)NC[C@@H](O)CO)cc2)c2ccc(Cl)cc2F)=N/O)ccc1=O (stereo partly drawn) [Example 312, 4-((E)-1-(4-Chloro-2-fluorophenyl)-3-(hydroxyimino)-3-(1-methyl-6-oxo-1,6-dihydropyridin-3-yl)propyl)-N—((R)-2,3-dihydroxypropyl)benzamide] | 326 nM |
| CS(=O)(=O)c1ccc(-c2cccc(C(C/C(=N\O)c3ccncc3)c3ccccc3)c2)cc1 (stereo not drawn) [Example 24, (E)-3-(4′-Methanesulfonyl-biphenyl-3-yl)-3-phenyl-1-pyridin-4-yl-propan-1-one oxime] | 2190 nM |
| Cc1cc(/C(CC(c2cccc(Br)c2)c2ccccc2C)=N/O)cc(F)n1 (stereo not drawn) [Example 122, (E)-3-(3-Bromo-phenyl)-1-(2-fluoro-6-methyl-pyridin-4-yl)-3-o-tolyl-propan-1-one oxime] | 201 nM |
| Cc1cc(/C(CC(c2ccc(-c3ccc(C(=O)O)cc3)cc2)c2ccc(F)cc2C)=N/O)ccn1 (stereo not drawn) [Example 141, (E)-4′-(1-(4-Fluoro-2-methylphenyl)-3-(hydroxyimino)-3-(2-methylpyridin-4-yl)propyl)biphenyl-4-carboxylic acid] | 8 nM |
| Cc1cc(C(=O)O)ccc1-c1ccc(C(C/C(=N\O)c2ccc(=O)n(C)c2)c2ccc(Cl)cc2Cl)cc1 (racemic) [Example 476, 4′-[1-(2,4-Dichloro-phenyl)-3-[(E)-hydroxyimino]-3-(1-methyl-6-oxo-1,6-dihydro-pyridin-3-yl)-propyl]-2-methyl-biphenyl-4-carboxylic acid] | 49 nM |
| Cc1cc(Cl)ccc1C(C/C(=N\O)c1ccc(=O)n(C)c1)c1ccc(Oc2ccc(Cl)c(C(=O)O)c2)cc1 (stereo not drawn) [Example 347, 2-Chloro-5-{4-[1-(4-chloro-2-methyl-phenyl)-3-[(E)-hydroxyimino]-3-(1-methyl-6-oxo-1,6-dihydro-pyridin-3-yl)-propyl]-phenoxy}-benzoic acid] | 119 nM |
| Cc1cc(F)ccc1[C@H](C/C(=N\O)c1ccc(=O)n(C)c1)c1ccc(-c2ccc(S(N)(=O)=O)cc2)cc1 (single isomer, unassigned) [Example 406, (−)-4′-[1-(4-Fluoro-2-methyl-phenyl)-3-[(E)-hydroxyimino]-3-(1-methyl-6-oxo-1,6-dihydro-pyridin-3-yl)-propyl]-biphenyl-4-sulfonic acid amide] | 9 nM |
| Cn1cc(/C(CC(c2ccc(Br)cc2)c2ccc(F)cc2S(C)(=O)=O)=N/O)ccc1=O (stereo not drawn) [Example 409, (E)-5-{3-(4-Bromo-phenyl)-3-(4-fluoro-2-methanesulfonyl-phenyl)-1-(hydroxyimino)-propyl}-1-methyl-1H-pyridin-2-one] | 210 nM |
| CNC(=O)c1ccc([C@@H](C/C(=N\O)c2ccnc(C)c2)c2ccccc2C)cc1 [Example 278, 4-[(R)-3-[(E)-Hydroxyimino]-3-(2-methyl-pyridin-4-yl)-1-o-tolyl-propyl]-N-methyl-benzamide] | 15 nM |
| Cc1[nH]c2ccccc2c1C(CC(=NO)c1ccncc1)c1ccc(N(C)C)cc1 (racemic) [Example 63, 3-(4-Dimethylamino-phenyl)-3-(2-methyl-1H-indol-3-yl)-1-pyridin-4-yl-propan-1-one oxime] | 2730 nM |
| Cn1cc(/C(CC(c2ccc(C(=O)NC3CC3)c(F)c2)c2ccccc2Cl)=N/O)ccc1=O (stereo not drawn) [Example 233, (E)-4-(1-(2-Chlorophenyl)-3-(hydroxyimino)-3-(1-methyl-6-oxo-1,6-dihydropyridin-3-yl)propyl)-N-cyclopropyl-2-fluorobenzamide] | 186 nM |
| Cc1cc(/C(CC(c2ccc(-c3c[nH]c(=O)[nH]c3=O)cc2)c2ccc(Cl)cc2F)=N/O)ccn1 (stereo not drawn) [Example 458, 5-{4-[1-(4-Chloro-2-fluoro-phenyl)-3-[(E)-hydroxyimino]-3-(2-methyl-pyridin-4-yl)-propyl]-phenyl}-1H-pyrimidine-2,4-dione] | 22 nM |

Further lines, results first:

| EC50 | Compound |
| --- | --- |
| 4590 nM | ON=C(CC1c2ccccc2-c2ccccc21)c1ccncc1 (racemic) [Example 61, 2-(9H-Fluoren-9-yl)-1-pyridin-4-yl-ethanone oxime] |
| 647 nM | Cn1cc(/C(CC(c2cccc(S(C)(=O)=O)c2)c2ccc(Cl)cc2F)=N/O)ccc1=O (stereo not drawn) [Example 315, (E)-5-(3-(4-Chloro-2-fluorophenyl)-1-(hydroxyimino)-3-(3-(methylsulfonyl)phenyl)propyl)-1-methylpyridin-2(1H)-one] |
| 132 nM | Cc1cc(/C(CC(c2ccc(C(=O)N3CCOCC3)cc2)c2ccc(F)cc2F)=N/O)ccn1 (stereo not drawn) [Example 438, 3-(2,4-Difluoro-phenyl)-1-(2-methyl-pyridin-4-yl)-3-[4-(morpholine-4-carbonyl)-phenyl]-propan-1-one oxime] |
| 107 nM | Cn1cc(/C(CC(c2ccc(Br)cc2F)C2CCCC2)=N/O)ccc1=O (stereo not drawn) [Example 192, 5-{3-(4-Bromo-2-fluoro-phenyl)-3-cyclopentyl-1-[(E)-hydroxyimino]-propyl}-1-methyl-1H-pyridin-2-one] |
| 156 nM | Cn1cc(/C(CC(c2ccc(-c3ccc(CC(=O)O)cc3)cc2)c2ccc(Cl)cc2F)=N/O)ccc1=O (single isomer, unassigned) [Example 461, {4′-[(−)-1-(4-Chloro-2-fluoro-phenyl)-3-[(E)-hydroxyimino]-3-(1-methyl-6-oxo-1,6-dihydro-pyridin-3-yl)-propyl]-biphenyl-4-yl}-acetic acid] |
| 28 nM | Cc1cc(/C(C[C@H](c2ccc(N3CCCC3=O)cc2)c2ccccc2C)=N/O)ccn1 [Example 299, 1-{4-[(R)-3-[(E)-Hydroxyimino]-3-(2-methyl-pyridin-4-yl)-1-o-tolyl-propyl]-phenyl}-pyrrolidin-2-one] |
| 375 nM | CCCC(C/C(=N\O)c1ccc(=O)n(C)c1)c1ccc(Br)cc1F (stereo not drawn) [Example 191, 5-{3-(4-Bromo-2-fluoro-phenyl)-1-[(E)-hydroxyimino]-hexyl}-1-methyl-1H-pyridin-2-one] |
| 102 nM | Cc1cc(/C(CC(c2ccc(-c3ccc(C(=O)O)cc3)cc2)c2ncccc2C)=N/O)ccn1 (stereo not drawn) [Example 117, (E)-4′-[3-[Hydroxyimino]-3-(2-methyl-pyridin-4-yl)-1-(3-methyl-pyridin-2-yl)-propyl]-biphenyl-4-carboxylic acid] |
